Results on one molecule are retold here after publication PMC4861903, “Synthesis of a highly water-soluble acacetin prodrug for treating experimental atrial fibrillation in beagle dogs” (Scientific Reports, 2016).

Data set [1] addresses T1, IKACh (acetylcholine-activated K+ current) (Rattus norvegicus, UniProt P48548+P63251).
T1 construct: endogenous in cells; host or cells: atrial myocytes dissociated from male Sprague-Dawley rats
T1 sequence (P63251 1-501): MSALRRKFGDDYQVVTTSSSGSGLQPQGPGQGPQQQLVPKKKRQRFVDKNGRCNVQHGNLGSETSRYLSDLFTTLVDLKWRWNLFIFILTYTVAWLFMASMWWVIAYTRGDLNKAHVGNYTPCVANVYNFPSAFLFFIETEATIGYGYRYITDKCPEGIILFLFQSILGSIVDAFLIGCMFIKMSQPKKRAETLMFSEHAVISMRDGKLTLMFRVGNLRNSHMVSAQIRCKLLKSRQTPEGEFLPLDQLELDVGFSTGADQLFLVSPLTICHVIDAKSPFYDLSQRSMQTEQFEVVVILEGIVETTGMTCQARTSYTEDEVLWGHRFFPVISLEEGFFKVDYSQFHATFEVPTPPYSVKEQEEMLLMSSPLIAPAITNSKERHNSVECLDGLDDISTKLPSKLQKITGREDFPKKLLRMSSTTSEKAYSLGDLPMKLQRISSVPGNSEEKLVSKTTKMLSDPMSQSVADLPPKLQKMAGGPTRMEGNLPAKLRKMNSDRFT
T1 sequence (P48548 1-419): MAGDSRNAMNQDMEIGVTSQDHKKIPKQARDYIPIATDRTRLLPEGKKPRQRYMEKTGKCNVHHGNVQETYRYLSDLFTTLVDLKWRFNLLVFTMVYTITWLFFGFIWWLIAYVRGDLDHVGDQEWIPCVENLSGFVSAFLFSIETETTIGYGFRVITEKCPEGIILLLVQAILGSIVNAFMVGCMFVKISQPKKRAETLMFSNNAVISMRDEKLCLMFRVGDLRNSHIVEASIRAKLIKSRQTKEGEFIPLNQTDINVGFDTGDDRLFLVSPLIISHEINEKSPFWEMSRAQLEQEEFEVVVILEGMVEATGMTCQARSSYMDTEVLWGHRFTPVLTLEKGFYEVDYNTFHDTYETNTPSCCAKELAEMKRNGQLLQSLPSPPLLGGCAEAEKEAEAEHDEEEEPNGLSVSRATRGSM
As to the kind of experiment: Whole-cell IKACh elicited by 5 μM carbachol in rat atrial myocytes. Type of data set: cell-based. The settings on record: 30 μM, at −100 mV, n = 5. As to the method:
Whole-cell currents of hKv1.5 and hKv4.3 were recorded in established HEK 293 cell lines stably expressing hKv1.5 (KCN5A) and hKv4.3 (KCND3) and IKACh was determined in isolated rat atrial myocytes as described previously[12][31][32] and in Supplemental Materials. […]
Effects of acacetin prodrug on cardiac potassium currents […]
Cells on a coverslip were transferred to an open cell chamber (0.5 ml) mounted on the stage of an inverted microscope and superfused with Tyrode’s solution at 2 mL/min. The whole cell patch-clamp technique was used as described previously.1, 2 The whole-cell membrane currents were measured using an EPC-10 amplifier and Pulse software (Heka Elektronik, Lambrecht, Germany). Borosilicate glass electrodes (1.2-mm OD) were pulled with a Brown/Flaming puller (model P-97, Sutter Instrument, Nato, CA) and had resistances of 1.5~2.5 MΩ when filled with the pipette solution. A 3-M KCl agar bridge was used as the reference electrode. The tip potential was zeroed before the patch pipette contacted the cell. After a giga-Ohm seal was obtained, the cell membrane was ruptured by applying gentle pressure to establish a whole-cell configuration. […] The liquid junction potential (14.7 mV) calculated with the software Clampex was not corrected in the experiment and data […]
Whole-cell current of IKACh was determined in isolated rat atrial myocytes. […]

For a further data set, the target named is T2, hERG channels (Homo sapiens, UniProt Q12809).
T2 construct: expressed in transfected cells; host or cells: HEK 293
T2 sequence (Q12809 whole entry): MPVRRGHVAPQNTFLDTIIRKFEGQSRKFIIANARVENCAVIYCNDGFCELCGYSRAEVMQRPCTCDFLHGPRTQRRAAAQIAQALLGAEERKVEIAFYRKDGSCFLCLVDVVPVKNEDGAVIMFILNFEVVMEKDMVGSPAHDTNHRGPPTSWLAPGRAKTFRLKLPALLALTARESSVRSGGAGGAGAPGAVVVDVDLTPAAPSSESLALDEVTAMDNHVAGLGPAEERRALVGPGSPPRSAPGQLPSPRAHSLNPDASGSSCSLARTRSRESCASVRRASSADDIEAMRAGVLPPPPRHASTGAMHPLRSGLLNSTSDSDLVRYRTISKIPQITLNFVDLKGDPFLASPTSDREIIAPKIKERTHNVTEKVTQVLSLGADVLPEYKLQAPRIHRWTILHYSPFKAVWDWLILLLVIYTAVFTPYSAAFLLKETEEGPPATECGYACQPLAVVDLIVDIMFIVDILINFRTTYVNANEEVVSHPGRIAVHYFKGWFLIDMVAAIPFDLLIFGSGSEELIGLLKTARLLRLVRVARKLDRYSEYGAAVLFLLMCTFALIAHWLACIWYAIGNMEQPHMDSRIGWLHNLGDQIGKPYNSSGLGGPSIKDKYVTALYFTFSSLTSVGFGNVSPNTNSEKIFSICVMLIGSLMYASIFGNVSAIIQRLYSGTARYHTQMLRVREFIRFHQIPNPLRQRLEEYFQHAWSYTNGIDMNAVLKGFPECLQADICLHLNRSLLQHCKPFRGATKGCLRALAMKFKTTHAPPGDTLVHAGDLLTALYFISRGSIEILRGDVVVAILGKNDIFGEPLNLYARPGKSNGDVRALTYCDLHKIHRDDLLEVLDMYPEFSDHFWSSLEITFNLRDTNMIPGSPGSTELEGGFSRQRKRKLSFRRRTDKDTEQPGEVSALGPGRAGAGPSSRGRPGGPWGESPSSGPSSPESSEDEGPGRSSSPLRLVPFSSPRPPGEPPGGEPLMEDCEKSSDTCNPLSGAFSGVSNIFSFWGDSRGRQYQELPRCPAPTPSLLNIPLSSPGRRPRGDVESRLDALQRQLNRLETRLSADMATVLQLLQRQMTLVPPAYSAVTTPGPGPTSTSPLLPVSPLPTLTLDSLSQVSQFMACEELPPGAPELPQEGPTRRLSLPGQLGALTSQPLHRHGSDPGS
Kind of data set: hERG current in HEK 293 cells. Conditions: 30 μM, n = 4, data not shown. In kind it is cell-based.

For the molecule `COc1ccc(-c2cc(=O)c3c(O)cc(OP(=O)([O-])[O-])cc3o2)cc1.[Na+].[Na+]` [acacetin prodrug, phosphate sodium salt of acacetin], the “inhibition of IK.ACh” value in data set [1] is recorded as “no significant inhibition”. Besides, the “effect on hERG channels” value at hERG channels is on record as “no such effect”.
